Our source for the Activity values is ChEMBL document CHEMBL5678818, “Discovery of potent SOS1 inhibitors that block RAS activation via disruption of the RAS-SOS1 interaction” (Proc Natl Acad Sci U S A, 2019).

Assay [1] deals with Mitogen-activated protein kinase 7 (Homo sapiens) (UniProt Q13164). Nature of the assay: Inhibition of ERK5 (unknown origin) assessed as residual activity at 1000 nM by KINOMEscan analysis relative to control.
The target in assay [2] is T1, Ankyrin repeat and protein kinase domain-containing protein 1 (Homo sapiens) (UniProt Q8NFD2).
T1 sequence (whole entry): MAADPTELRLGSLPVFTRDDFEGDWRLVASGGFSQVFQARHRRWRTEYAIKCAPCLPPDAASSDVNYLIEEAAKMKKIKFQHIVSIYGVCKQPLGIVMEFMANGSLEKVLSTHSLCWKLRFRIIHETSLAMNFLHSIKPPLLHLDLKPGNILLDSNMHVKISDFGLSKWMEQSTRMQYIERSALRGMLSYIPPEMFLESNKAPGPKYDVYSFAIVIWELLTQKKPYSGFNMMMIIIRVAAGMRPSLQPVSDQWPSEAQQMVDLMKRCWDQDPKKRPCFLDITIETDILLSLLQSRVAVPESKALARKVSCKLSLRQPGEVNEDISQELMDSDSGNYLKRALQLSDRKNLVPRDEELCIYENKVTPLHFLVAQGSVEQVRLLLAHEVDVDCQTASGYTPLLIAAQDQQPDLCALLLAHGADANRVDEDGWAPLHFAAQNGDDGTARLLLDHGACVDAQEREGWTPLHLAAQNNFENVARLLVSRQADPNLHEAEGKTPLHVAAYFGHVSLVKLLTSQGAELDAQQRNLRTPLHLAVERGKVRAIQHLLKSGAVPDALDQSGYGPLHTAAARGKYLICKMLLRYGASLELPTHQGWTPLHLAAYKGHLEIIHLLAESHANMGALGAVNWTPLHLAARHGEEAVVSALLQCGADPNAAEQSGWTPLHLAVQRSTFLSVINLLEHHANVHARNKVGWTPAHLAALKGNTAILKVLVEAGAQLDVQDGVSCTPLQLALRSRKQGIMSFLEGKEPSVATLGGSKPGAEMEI
Nature of the assay: Inhibition of ANKK1 (unknown origin) assessed as residual activity at 1000 nM by KINOMEscan analysis relative to control.

The target of assay [3] is Serine/threonine-protein kinase PAK 2 (Homo sapiens) (UniProt Q13177). Nature of the assay: Inhibition of PAK2 (unknown origin) assessed as residual activity at 1000 nM by KINOMEscan analysis relative to control.
Assay [4] addresses T2, Ephrin type-A receptor 3 (Homo sapiens) (UniProt P29320).
T2 sequence (whole entry): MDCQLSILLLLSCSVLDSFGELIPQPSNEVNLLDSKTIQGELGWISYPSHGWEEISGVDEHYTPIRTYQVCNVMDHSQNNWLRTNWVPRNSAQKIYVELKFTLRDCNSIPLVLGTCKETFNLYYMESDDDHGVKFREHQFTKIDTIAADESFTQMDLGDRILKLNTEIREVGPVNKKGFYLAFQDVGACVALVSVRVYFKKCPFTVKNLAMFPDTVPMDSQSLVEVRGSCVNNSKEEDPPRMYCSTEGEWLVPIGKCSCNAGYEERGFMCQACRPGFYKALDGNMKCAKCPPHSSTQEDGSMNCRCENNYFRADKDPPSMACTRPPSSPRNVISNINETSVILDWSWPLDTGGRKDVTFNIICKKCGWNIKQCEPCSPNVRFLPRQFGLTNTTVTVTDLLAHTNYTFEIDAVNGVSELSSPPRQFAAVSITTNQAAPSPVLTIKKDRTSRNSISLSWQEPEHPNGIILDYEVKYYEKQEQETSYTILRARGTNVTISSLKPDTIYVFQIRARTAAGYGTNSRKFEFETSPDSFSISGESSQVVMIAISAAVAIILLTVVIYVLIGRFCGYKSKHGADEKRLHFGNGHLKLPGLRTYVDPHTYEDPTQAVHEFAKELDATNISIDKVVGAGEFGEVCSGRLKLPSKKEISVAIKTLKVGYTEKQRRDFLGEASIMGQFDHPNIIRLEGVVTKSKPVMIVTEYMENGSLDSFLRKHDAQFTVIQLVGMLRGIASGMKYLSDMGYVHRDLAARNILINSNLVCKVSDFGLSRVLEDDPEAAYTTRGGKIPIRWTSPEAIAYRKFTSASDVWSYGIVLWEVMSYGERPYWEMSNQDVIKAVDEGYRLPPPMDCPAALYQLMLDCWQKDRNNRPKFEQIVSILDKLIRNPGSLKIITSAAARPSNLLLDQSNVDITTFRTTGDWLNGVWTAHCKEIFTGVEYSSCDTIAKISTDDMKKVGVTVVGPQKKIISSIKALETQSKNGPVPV
Nature of the assay: Inhibition of EPHA3 (unknown origin) assessed as residual activity at 1000 nM by KINOMEscan analysis relative to control.

In assay [5] the target is 5'-AMP-activated protein kinase catalytic subunit alpha-2 (Homo sapiens) (UniProt P54646). Nature of the assay: Inhibition of AMPK-alpha2 (unknown origin) assessed as residual activity at 1000 nM by KINOMEscan analysis relative to control.
Sequence of 5'-AMP-activated protein kinase catalytic subunit alpha-2 (Homo sapiens) (P54646 whole entry, looked up): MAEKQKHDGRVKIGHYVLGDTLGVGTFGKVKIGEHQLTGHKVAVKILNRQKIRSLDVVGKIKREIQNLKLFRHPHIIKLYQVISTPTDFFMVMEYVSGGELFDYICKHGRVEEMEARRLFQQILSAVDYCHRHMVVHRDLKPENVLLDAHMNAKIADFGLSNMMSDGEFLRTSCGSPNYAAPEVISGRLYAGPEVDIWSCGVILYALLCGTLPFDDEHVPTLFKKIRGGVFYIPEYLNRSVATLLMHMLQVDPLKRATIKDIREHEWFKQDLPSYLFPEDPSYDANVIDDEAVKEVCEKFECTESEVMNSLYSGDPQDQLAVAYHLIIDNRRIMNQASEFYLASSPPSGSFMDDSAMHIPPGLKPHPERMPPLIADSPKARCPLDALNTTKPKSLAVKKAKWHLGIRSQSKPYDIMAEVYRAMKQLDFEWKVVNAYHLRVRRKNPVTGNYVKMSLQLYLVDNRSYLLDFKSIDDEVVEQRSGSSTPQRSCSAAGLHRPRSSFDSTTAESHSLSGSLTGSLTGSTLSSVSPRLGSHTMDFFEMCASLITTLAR

Sequence of Serine/threonine-protein kinase PAK 2 (Homo sapiens) (Q13177 whole entry): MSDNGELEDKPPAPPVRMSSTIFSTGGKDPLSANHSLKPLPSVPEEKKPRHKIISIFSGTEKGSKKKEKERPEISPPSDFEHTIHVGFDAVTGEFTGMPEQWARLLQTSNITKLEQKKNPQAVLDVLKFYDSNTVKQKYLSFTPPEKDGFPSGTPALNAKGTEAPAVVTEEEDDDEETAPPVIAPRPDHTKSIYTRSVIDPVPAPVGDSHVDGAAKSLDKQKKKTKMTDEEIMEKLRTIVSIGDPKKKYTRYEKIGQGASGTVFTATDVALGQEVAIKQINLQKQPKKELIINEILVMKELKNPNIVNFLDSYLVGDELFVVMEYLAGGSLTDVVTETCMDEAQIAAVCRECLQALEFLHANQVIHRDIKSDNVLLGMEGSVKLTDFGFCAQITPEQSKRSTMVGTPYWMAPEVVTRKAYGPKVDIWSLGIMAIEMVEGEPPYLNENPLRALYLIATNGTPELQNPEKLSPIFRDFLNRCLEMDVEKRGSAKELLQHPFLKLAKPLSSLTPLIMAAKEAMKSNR
Sequence of Mitogen-activated protein kinase 7 (Homo sapiens) (Q13164 2-816 limits assumed): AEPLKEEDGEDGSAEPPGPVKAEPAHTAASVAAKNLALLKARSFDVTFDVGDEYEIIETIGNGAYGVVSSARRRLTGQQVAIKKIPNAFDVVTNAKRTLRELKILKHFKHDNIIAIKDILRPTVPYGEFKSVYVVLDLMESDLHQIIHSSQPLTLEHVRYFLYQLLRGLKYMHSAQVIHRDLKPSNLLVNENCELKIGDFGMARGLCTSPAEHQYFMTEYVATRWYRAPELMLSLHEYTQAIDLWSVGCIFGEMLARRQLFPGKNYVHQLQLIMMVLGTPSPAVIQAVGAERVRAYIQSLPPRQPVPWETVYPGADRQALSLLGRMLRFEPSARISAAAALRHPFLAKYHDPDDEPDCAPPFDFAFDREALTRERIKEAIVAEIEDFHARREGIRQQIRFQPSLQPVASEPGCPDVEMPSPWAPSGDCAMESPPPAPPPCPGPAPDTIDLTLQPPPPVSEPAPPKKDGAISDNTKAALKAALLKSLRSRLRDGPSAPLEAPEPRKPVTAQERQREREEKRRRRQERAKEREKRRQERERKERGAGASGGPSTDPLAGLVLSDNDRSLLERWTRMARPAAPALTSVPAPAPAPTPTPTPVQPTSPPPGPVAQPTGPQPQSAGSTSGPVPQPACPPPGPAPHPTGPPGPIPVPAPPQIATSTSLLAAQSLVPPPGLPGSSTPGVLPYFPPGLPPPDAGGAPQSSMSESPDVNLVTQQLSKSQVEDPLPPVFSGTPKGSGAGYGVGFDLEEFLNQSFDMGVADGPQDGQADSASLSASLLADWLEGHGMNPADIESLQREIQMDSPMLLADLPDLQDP

On to `COc1cc2ncnc(N[C@H](C)c3cccc4ccccc34)c2cc1OC`, for which the Activity in assay [1] was 91%; in assay [2] it was 96%; in assay [3], 82%; in assay [4], 48%; in assay [5], 98%.

As to `COc1cc2nc(C)nc(N[C@H](C)c3cccc(-c4cn[nH]c4)c3)c2cc1OC`, the Activity in assay [1] amounted to 69%; in assay [2], 77%; in assay [3], 67%; in assay [4], 90%; in assay [5], 81%.
